Results as given in patent publication US20200069552A1, “COSMETIC AND/OR DERMATOLOGICAL COMPOSITION, AND USES THEREOF IN THE COSMETIC FIELD AND IN THE ADJUVANT TREATMENT OF DERMATOLOGICAL PATHOLOGIES” (ISTITUTO GANASSINI S.P.A. DI RICERCHE BIOCHIMICHE, priority 2017, published 2020).

Experiment: Viscosity at 25° C. with a Brookfield viscometer DV-I
Format: physicochemical

viscosity, in words (25° C.): extremely fluid
Viscosity at 25° C. (Rotor G = 2, 10 rpm): 3200 cP
SMILES: CC(=O)Oc1c(C)c(C)c2c(c1C)CCC(C)(CCC[C@H](C)CCC[C@H](C)CCCC(C)C)O2 (some centres unmarked) [Comp A, Vitamin E acetate]
